Data reported in patent US7745422B2, “Bisphosphonate compounds and methods for bone resorption diseases, cancer, bone pain, immune disorders, and infectious diseases” (The Board of Trustees of the University of Illinois, priority 2004, dated 2010).
Read-outs that look alike come from different tables or passages of the source.

Columns and labels:
[1] = system: Dictyostelium discoideum; experiment: D. discoideum cell growth inhibition; format: cell-based
Text: (§1) We then investigated the activity of each compound in inhibiting the FPPS from L. major, in Dictyostelium discoideum growth inhibition and in γδ T cell activation. We used the FPPS from L. major since this enzyme is the putative bisphosphonate target in several trypanosomatid species.

[2] = target: T1, human FPPS (Homo sapiens, UniProt P14324); experiment: human FPPS assay; format: biochemical
T1 sequence (P14324 1-419): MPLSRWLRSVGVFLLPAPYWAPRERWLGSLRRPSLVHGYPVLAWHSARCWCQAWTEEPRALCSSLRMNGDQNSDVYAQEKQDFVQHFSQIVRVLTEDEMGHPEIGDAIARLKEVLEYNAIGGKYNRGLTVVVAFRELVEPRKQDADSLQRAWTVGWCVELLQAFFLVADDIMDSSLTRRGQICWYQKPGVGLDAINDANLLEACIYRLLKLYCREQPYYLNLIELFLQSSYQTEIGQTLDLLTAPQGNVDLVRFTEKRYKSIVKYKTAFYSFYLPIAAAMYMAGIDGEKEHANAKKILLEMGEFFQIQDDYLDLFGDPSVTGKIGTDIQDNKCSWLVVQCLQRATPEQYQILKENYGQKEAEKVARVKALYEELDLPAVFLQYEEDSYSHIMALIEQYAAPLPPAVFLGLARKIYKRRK

[3] = system: Vγ2Vδ2 T cells; experiment: gammadelta T cell stimulation (TNF-α release assay); format: cell-based, human
Text: as §1

[4] = system: pyrophosphatase enzymes; experiment: Pyrophosphatase inhibition; format: biochemical
Text: We explored the hypothesis of whether analogs of pyrophosphate could block pyrophosphatase enzymes and/or inhibit cellular growth or function. We used certain bisphosphonate compounds that are currently applied in bone resorption therapy.

[5] = system: Vγ2Vδ2 T cells; settings: TNF-α release, footnote b: data from Ref. 30; read-out: gammadelta T cell stimulation, EC50; cited from earlier work
[6] = system: parasite cell growth; experiment: Parasite cell growth inhibition; format: cell-based
Text: We explored the hypothesis of whether analogs of pyrophosphate could block pyrophosphatase enzymes and/or inhibit cellular growth or function. We used certain bisphosphonate compounds that are currently applied in bone resorption therapy. The compounds included pamidronate (Aredia®, Novartis), alendronate (Fosamax®, Merck), and risedronate (Actonel®, Procter & Gamble). […] Without wishing to be bound by a particular theory, the compounds appeared to act as inhibitors of isoprenoid biosynthesis (FIG. 6).

[7] = target: T2, L. major FPPS (Leishmania major, UniProt Q4QBL1); settings: read-out: L. major FPPS Ki; Table 1, footnote a: data from Ref. 17; cited from earlier work
T2 sequence (Q4QBL1 1-362): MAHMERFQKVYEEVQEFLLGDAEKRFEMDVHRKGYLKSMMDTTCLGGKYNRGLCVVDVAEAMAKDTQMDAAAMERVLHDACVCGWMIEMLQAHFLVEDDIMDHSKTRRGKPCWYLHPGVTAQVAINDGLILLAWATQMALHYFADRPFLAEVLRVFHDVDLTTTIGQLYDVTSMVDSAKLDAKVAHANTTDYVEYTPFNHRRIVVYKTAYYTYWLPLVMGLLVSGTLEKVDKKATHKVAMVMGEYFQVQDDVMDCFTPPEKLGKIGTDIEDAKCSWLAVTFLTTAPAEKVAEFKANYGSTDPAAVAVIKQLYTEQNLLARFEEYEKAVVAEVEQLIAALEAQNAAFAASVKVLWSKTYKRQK

[8] = system: cutaneous leishmaniasis; experiment: Treatment of cutaneous leishmaniasis in mice; format: in vivo
Text: The average lesion size in treated mice was reduced during a time period of several weeks and in a dose-dependent manner relative to […] mice.

[9] = Table 4, read-out: (1) D. discoideum IC50
[10] = Table 4, read-out: (2) human FPPS IC50
[11] = Table 4, read-out: (3) gammadelta T cell stimulation EC50

SMILES | IC50 [1, 9] [µM] | IC50 [2, 10] [nM] | EC50 [3, 11] [µM] | further results
O=P([O-])(O)C(C[n+]1cccc(F)c1)P(=O)(O)O (centres unmarked) [Compound 477] | 2.7 | 1400 |  | EC50 ([3]; Table 3, additional testing, read-out: gammadelta T cell stimulation EC50): 1.8 µM
O=P([O-])(O)C(O)(C[n+]1cccc(Br)c1)P(=O)(O)O (centres unmarked) [Compound 484] |  |  |  | IC50 ([1]; Dictyostelium discoideum, read-out: (1) D. discoideum IC50): 3.5 µM; IC50 [2]: 2500 nM; EC50 ([3]; Homo sapiens, T-cell, read-out: gammadelta T cell stimulation EC50): 4.6 µM
O=P([O-])(O)C(C[n+]1cccc(C(F)(F)F)c1)P(=O)(O)O (centres unmarked) [Compound 511] | 4.1 | 2500 | 14 | 
O=P([O-])(O)C(C[n+]1cccc(Cl)c1)P(=O)(O)O (centres unmarked) [Compound 526] | 2.1 | 1200 | 8.6 | 
O=P([O-])(O)C(C[n+]1cccc(I)c1)P(=O)(O)O (centres unmarked) [Compound 542] | 1.7 | 1200 | 12 | 
O=P([O-])(O)C(O)(C[n+]1cccc(I)c1)P(=O)(O)O (centres unmarked) [Compound 582] | 3.5 | 1600 |  | 
CCOc1cccc(-c2ccc[n+](CC(P(=O)([O-])O)P(=O)(O)O)c2)c1 (centres unmarked) [Compound 588] | 3.3 | 11000 | 120 | 
O=P([O-])(O)C(O)(C[n+]1cccc(O)c1)P(=O)(O)O (centres unmarked) [Compound 595] | 49 | 2700 | 210 | 
CCCCC#Cc1ccc[n+](CC(P(=O)([O-])O)P(=O)(O)O)c1 (centres unmarked) [Compound 597] |  | 1900 | 58 | 
NCCCC(O)(P(=O)(O)O)P(=O)(O)O [alendronate] |  |  |  | inhibition of pyrophosphatases [4]: did not appear necessarily to inhibit; EC50 [5]: 52 µM; parasite cell growth inhibition [6]: did inhibit
O=P(O)(O)C(NC1CCCCCC1)P(=O)(O)O [incadronate] |  |  |  | IC50 ([1]; cell growth inhibition, Table 1 and text, read-out: D. discoideum IC50): 1.6 µM; Ki [7]: 23 nM; EC50 [5]: 15 µM
NCCC(O)(P(=O)(O)O)P(=O)(O)O [pamidronate] |  |  |  | treating cutaneous leishmaniasis ([8]; mice): effective; average lesion size ([8]; treated mice, several weeks, dose-dependent): reduced; inhibition of pyrophosphatases [4]: did not appear necessarily to inhibit; parasite cell growth inhibition [6]: did inhibit
O=P(O)(O)C(O)(Cc1cccnc1)P(=O)(O)O [risedronate] |  |  |  | inhibition of pyrophosphatases [4]: did not appear necessarily to inhibit; EC50 [5]: 6.2 µM; parasite cell growth inhibition [6]: did inhibit
